Consider 2 compounds from PMC3577712 (PLoS ONE, 2013).

For orientation: IC50 means the point on the concentration scale where inhibition reaches its midpoint. As a reminder, the EC50 is the midpoint of the concentration-response curve.

For one assay, the target named is Bac-NA^WT (Influenza A virus, UniProt Q6DPL2). Description: biochemical.
The next assay deals with N2 NA (Influenza A virus, UniProt P0DOF9). In words: biochemical.
The test system of assay [1] is influenza A/WSN/33 (H1N1). Description: microbe, parasite or virus in culture. The note with it: MDCK, read-out: EC50 for viral plaque formation. Type of assay: cell-based.
Assay [2] deals with influenza A/Udorn/72 (H3N2). In words: microbe, parasite or virus in culture. The note with it: H3N2, MDCK, read-out: EC50 for viral plaque formation. It counts as cell-based.
A further assay has as its system A/WSN/33 (H1N1). It counts as cell-based, influenza A virus.
Another assay relates to A/WSN/33. Type of assay: cell-based, influenza A virus.
The next assay concerns NA. The note with it: cited from earlier work.

Bac-NA^WT, sequence (Q6DPL2 63-449 limits assumed): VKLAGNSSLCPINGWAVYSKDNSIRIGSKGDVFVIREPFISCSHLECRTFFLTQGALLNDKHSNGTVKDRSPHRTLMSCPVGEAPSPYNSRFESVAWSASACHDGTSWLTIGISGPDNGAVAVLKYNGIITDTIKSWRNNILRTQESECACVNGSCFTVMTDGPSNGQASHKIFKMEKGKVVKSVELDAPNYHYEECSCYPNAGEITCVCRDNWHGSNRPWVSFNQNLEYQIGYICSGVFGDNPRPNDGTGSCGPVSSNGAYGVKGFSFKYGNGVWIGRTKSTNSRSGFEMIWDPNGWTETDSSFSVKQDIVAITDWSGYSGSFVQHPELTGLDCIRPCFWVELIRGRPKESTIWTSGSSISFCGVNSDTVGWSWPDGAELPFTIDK
N2 NA, sequence (P0DOF9 whole entry, looked up): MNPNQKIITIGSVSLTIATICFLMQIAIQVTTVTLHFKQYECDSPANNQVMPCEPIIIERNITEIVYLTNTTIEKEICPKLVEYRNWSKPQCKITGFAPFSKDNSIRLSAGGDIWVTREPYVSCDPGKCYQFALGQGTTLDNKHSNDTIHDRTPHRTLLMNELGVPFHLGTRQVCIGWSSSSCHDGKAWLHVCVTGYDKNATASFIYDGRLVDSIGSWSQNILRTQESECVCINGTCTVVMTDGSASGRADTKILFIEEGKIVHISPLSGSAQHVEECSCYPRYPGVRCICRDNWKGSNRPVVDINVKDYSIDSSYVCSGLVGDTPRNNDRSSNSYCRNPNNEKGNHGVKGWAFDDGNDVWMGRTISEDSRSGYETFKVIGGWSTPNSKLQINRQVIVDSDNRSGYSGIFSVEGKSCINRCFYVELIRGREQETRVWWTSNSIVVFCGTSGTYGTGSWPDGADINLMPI

Regarding `Nc1c(S(=O)(=O)O)cc(Nc2cccc(S(=O)(=O)CCOS(=O)(=O)O)c2)c2c1C(=O)c1ccccc1C2=O` [RB19, Remazol Brilliant Blue R], the values for the IC50 against Bac-NA^WT and at N2 NA were 3.4 µM and 15.3 µM, respectively. Further, the EC50 in assay [1] is 2.7 µM; in assay [2], 2.8 µM. Moreover, in the assay with A/WSN/33 (H1N1), the “Virus yields (fluorogenic signal of NA activity)” value is recorded as “dramatically reduced virus yields”. The Influenza-induced cytopathic effect result in the assay with A/WSN/33 is “inhibits the influenza-induced cytopathic effect”.
For DANA, the IC50 with NA is 10 µM.
